Where two headings read alike, the source gives them in different places.
Test system: HCV replicon
Experiment: HCV replicon replication assay (NPT ELISA) in Huh-7 replicon-containing cells
Assay type: cell-based
Details: Hepatitis C virus
Experimental: Compounds claimed herein are tested for the ability to inhibit viral replication of the Hepatitis C replicon in cultured cells in which the HCV replicon construct has been incorporated. The HCV replicon system was described by Bartenschlager, et. al (Science, 285, pp. 110-113 (1999)). The replicon system is predictive of in vivo anti-HCV activity; compounds that are active in humans uniformly evidence activity in the replicon assay.
In this assay HCV replicon containing cells are treated with different concentrations of the test compound to ascertain the ability of the test compound to suppress replication of the HCV replicon. As a positive control, HCV replicon-containing cells are treated with different concentrations of interferon alpha, a known inhibitor of HCV replication. The replicon assay system includes Neomycin Phosphotransferase (NPT) as a component of the replicon itself in order to detect the transcription of replicon gene products in the host cell. Cells in which the HCV replicon is actively replicating have high levels of NPT; the level of NPT is proportional to HCV replication. […] The NPT level of each sample is measured using a captured ELISA.
A protocol for testing compounds for the ability to inhibit viral replication of the Hepatitis C replicon cultured cells in which the replicon construct has been incorporated, follows.
The HCV replicon contains, 5′-3′, the HCV-IRES, the neomycin phosphotransferase (neo) gene, the IRES of encephalomyocarditis virus, which directs translation of HCV sequences NS3 to NS5B, and the 3′-NTR. The sequence of the HCV replicon has been deposited in GenBank (Accession no. AJ242652).
The replicon is transfected into Huh-7 cells using standard methods such as electroporation.
The equipment and materials include, but are not limited to, Huh-7 HCV replicon-containing cells, maintenance media (DMEM (Dulbecco's modified Eagle media) supplemented with 10% FBS, L-glutamine, non-essential amino acids, penicillin (100 units/ml), streptomycin (100 micrograms/ml), and 500 micrograms/ml of Geneticin (G418), screening media (DMEM supplemented with 10% FBS, L-glutamine, non-essential amino acids, penicillin (100 units/ml) and streptomycin (100 micrograms/ml)), 96 well tissue culture plates (flat bottom), 96 well plates (U bottom for drug dilution), Interferon alpha for positive control, fixation reagent (such as methanol: acetone), primary antibody (rabbit anti-NPTII), secondary antibody: Eu-N1 l, and enhancement solution.
HCV replicon-containing cells support high levels of viral RNA replicon replication when their density is suitable. Over-confluency causes decreased viral RNA replication. Therefore, cells must be kept growing in log phase in the presence of 500 micrograms/ml of G418. Generally, cells should be passed twice a week at 1: 4-6 dilution. Cell maintenance is conducted as follows:
HCV replicon-containing cells are examined under a microscope to ensure that cells growing well. Cells are rinsed once with PBS and 2 ml trypsin is added. The cell/trypsin mixture is incubated at 37° C. in a CO2 incubator for 3-5 minutes. After incubation 10 ml of complete media is added to stop the trypsinization reaction. Cells are blown gently, put into a 15 ml tube, and spun at 1200 rpm for 4 minutes. The trypsin/medium solution is removed. Medium (5 ml) is added and the cells are mixed carefully. The cells are counted.
The cells are then seeded onto 96-well plates at a density of 6000-7500 cells/100 microliters/well (6-7.5×10^5 cells/10 ml/plate). The plates are then incubated at 37° C. in a 5% CO2 incubator.
Cells are examined under a microscope approximated 24 hours after seeding and prior to adding drugs. If counting and dilution were performed correctly, cells are 60-70% confluent and nearly all cells should attach and spread evenly in the well.
HCV replicon-containing cells are rinsed with once PBS once; 2 mls of trypsin are then added. Cells are incubated at 37° C. in a 5% CO2 incubator for 3-5 minutes. […]

[1] = 72 h, HCV replicon in Huh-7 cells, three days incubation, read-out: EC50

C=C[C@@H]1CC1(NC(=O)[C@@H]1C[C@@H](Oc2nc(-c3ccccn3)cc3c(Cl)c(OC)ccc23)CN1C(=O)[C@@H](CC(=O)N1CCC(C(F)(F)F)CC1)C(C)(C)C)C(=O)NS(=O)(=O)C1CC1 (mixture of isomers) [Compound 245, (2S,4R)-1-((S)-2-tert-butyl-4-oxo-4-(4-(trifluoro-methyl)piperidin-1-yl)butanoyl)-4-(5-chloro-6-methoxy-3-(pyridin-2-yl)isoquinolin-1-yloxy)-N-((S)-1-(cyclopropyl-sulfonylcarbamoyl)-2-vinylcyclo-propyl)pyrrolidine-2-carboxamide]
EC50 [1]: < 1000 nM

C=C[C@@H]1CC1(NC(=O)[C@@H]1C[C@@H](Oc2cc(-c3ccccn3)nc3c(C)c(OC)ccc23)CN1C(=O)[C@@H](CC(=O)N1CCC(C(F)(F)F)CC1)C(C)(C)C)C(=O)NS(=O)(=O)C1CC1 (mixture of isomers) [Compound 249, (2S,4R)-1-((S)-2-tert-butyl-4-oxo-4-(4-(trifluoro-methyl)piperidin-1-yl)butanoyl)-N-((S)-1-(cyclopropyl-sulfonylcarbamoyl)-2-vinylcyclopropyl)-4-(7-methoxy-8-methyl-2-(pyridin-2-yl)quinolin-4-yloxy)pyrrolidine-2-carboxamide]
EC50 [1]: < 1000 nM

C=C[C@@H]1CC1(NC(=O)[C@@H]1C[C@@H](Oc2cc(-c3nc(C(C)C)cs3)nc3c(C)c(OC)ccc23)CN1C(=O)[C@@H](CC(=O)N1CCC(C(F)(F)F)CC1)C(C)(C)C)C(=O)NS(=O)(=O)C1CC1 (stereo in doubt) [Compound 250, (2S,4R)-1-((S)-2-tert-butyl-4-oxo-4-(4-(trifluoro-methyl)piperidin-1-yl)butanoyl)-N-((S)-1-(cyclopropyl-sulfonylcarbamoyl)-2-vinylcyclopropyl)-4-(2-(4-isopropylthiazol-2-yl)-7-methoxy-8-methylquinolin-4-yloxy)pyrrolidine-2-carboxamide]
EC50 [1]: < 1000 nM

C=C[C@@H]1CC1(NC(=O)[C@@H]1C[C@@H](Oc2cc(-c3cccnc3)nc3c(C)c(OC)ccc23)CN1C(=O)[C@@H](CC(=O)N1CCC(C(F)(F)F)CC1)C(C)(C)C)C(=O)NS(=O)(=O)C1CC1 (stereo in doubt) [Compound 253, (2S,4R)-1-((S)-2-tert-butyl-4-oxo-4-(4-(trifluoro-methyl)piperidin-1-yl)butanoyl)-N-((S)-1-(cyclopropyl-sulfonylcarbamoyl)-2-vinylcyclopropyl)-4-(7-methoxy-8-methyl-2-(pyridin-3-yl)quinolin-4-yloxy)pyrrolidine-2-carboxamide]
EC50 [1]: < 1000 nM

C=CC1CC1(NC(=O)[C@@H]1C[C@@H](Oc2cc(-c3ccccc3)nc3cc(OC)ccc23)CN1C(=O)[C@@H](CC(=O)O)C(C)(C)C)C(=O)OCC (stereo partly drawn) [Compound 11, (3S)-3-((2S,4R)-2-(1-(ethoxycarbonyl)-2-vinylcyclopropylcarbamoyl)-4-(7-methoxy-2-phenylquinolin-4-yloxy)pyrrolidine-1-carbonyl)-4,4-dimethylpentanoic acid]
EC50 (Huh-7): ≤ 10000 nM

C=C[C@@H]1C[C@@]1(NC(=O)[C@@H]1C[C@@H](Oc2cc(-c3ccccc3)nc3cc(OC)ccc23)CN1C(=O)[C@@H](CC(=O)N1CCCCC1)C(C)(C)C)C(=O)NS(=O)(=O)C1CC1 [Compound 38, (2S,4R)-1-((S)-2-tert-butyl-4-oxo-4-(piperidin-1-yl)butanoyl)-N-((1S,2S)-1-(cyclopropylsulfonyl-carbamoyl)-2-vinylcyclopropyl)-4-(7-methoxy-2-phenylquinolin-4-yloxy)pyrrolidine-2-carboxamide]
EC50 [1]: < 1000 nM
EC50 (Huh-7): ≤ 10000 nM

C=CC1C[C@@]1(NC(=O)[C@@H]1C[C@@H](Oc2cc(-c3ccccc3)nc3cc(OC)ccc23)CN1C(=O)C[C@H](C(=O)N1CCCCC1)C(C)(C)C)C(=O)NS(=O)(=O)C1CC1 (stereo partly drawn) [Compound 39, (2S,4R)-N-(1-(cyclo-propylsulfonyl-carbamoyl)-2-vinylcyclopropyl)-1-((S)-4,4-dimethyl-3-(piperidine-1-carbonyl)pentano-yl)-4-(7-methoxy-2-phenylquinolin-4-yloxy)pyrrolidine-2-carboxamide]
EC50 [1]: < 1000 nM
EC50 (Huh-7): ≤ 10000 nM

C=CC1CC1(NC(=O)[C@@H]1C[C@@H](Oc2cc(-c3ccccc3)nc3cc(OC)ccc23)CN1C(=O)[C@@H](CC(=O)N1CCc2ccccc2C1)C(C)(C)C)C(=O)NS(=O)(=O)C1CC1 (stereo partly drawn) [Compound 40, (2S,4R)-1-((S)-2-tert-butyl-4-(3,4-dihydro-isoquinolin-2(1H)-yl)-4-oxobutanoyl)-N-(1-(cyclopropyl-sulfonyl-carbamoyl)-2-vinylcyclopropyl)-4-(7-methoxy-2-phenylquinolin-4-yloxy)pyrrolidine-2-carboxamide]
EC50 [1]: < 1000 nM
EC50 (Huh-7): ≤ 10000 nM

C=CC1CC1(NC(=O)[C@@H]1C[C@@H](Oc2cc(-c3ccccc3)nc3cc(OC)ccc23)CN1C(=O)[C@@H](CC(=O)N1CCCc2ccccc21)C(C)(C)C)C(=O)NS(=O)(=O)C1CC1 (stereo partly drawn) [Compound 41, (2S,4R)-1-((S)-2-tert-butyl-4-(3,4-dihydroquinolin-1(2H)-yl)-4-oxobutanoyl)-N-(1-(cyclopropyl-sulfonyl-carbamoyl)-2-vinylcyclopropyl)-4-(7-methoxy-2-phenylquinolin-4-yloxy)pyrrolidine-2-carboxamide]
EC50 [1]: < 1000 nM

C=CC1CC1(NC(=O)[C@@H]1C[C@@H](Oc2cc(-c3ccccc3)nc3cc(OC)ccc23)CN1C(=O)[C@@H](CC(=O)N1CCCCC1C(N)=O)C(C)(C)C)C(=O)NS(=O)(=O)C1CC1 (stereo partly drawn) [Compound 42, 1-((3S)-3-((2S,4R)-2-(1-(cyclopropyl-sulfonyl-carbamoyl)-2-vinylcyclopropyl-carbamoyl)-4-(7-methoxy-2-phenylquinolin-4-yloxy)pyrrolidine-1-carbonyl)-4,4-dimethylpentano-yl)piperidine-2-carboxamide]
EC50 [1]: < 1000 nM

C=CC1CC1(NC(=O)[C@@H]1C[C@@H](Oc2cc(-c3ccccc3)nc3cc(OC)ccc23)CN1C(=O)[C@@H](CC(=O)N1CCC(CCC)CC1)C(C)(C)C)C(=O)NS(=O)(=O)C1CC1 (stereo partly drawn) [Compound 43, (2S,4R)-1-((S)-2-tert-butyl-4-oxo-4-(4-propylpiperidin-1-yl)butanoyl)-N-(1-(cyclopropyl-sulfonyl-carbamoyl)-2-vinylcyclopropyl)-4-(7-methoxy-2-phenylquinolin-4-yloxy)pyrrolidine-2-carboxamide]
EC50 [1]: 1000 to 10000 nM

C=CC1CC1(NC(=O)[C@@H]1C[C@@H](Oc2cc(-c3ccccc3)nc3cc(OC)ccc23)CN1C(=O)[C@@H](CC(=O)N1CCCC(C)C1)C(C)(C)C)C(=O)NS(=O)(=O)C1CC1 (stereo partly drawn) [Compound 44, (2S,4R)-1-((2S)-2-tert-butyl-4-(3-methylpiperidin-1-yl)-4-oxobutanoyl)-N-(1-(cyclopropyl-sulfonyl-carbamoyl)-2-vinylcyclopropyl)-4-(7-methoxy-2-phenylquinolin-4-yloxy)pyrrolidine-2-carboxamide]
EC50 [1]: 1000 to 10000 nM

C=CC1CC1(NC(=O)[C@@H]1C[C@@H](Oc2cc(-c3ccccc3)nc3cc(OC)ccc23)CN1C(=O)[C@@H](CC(=O)N1CCCC(C(N)=O)C1)C(C)(C)C)C(=O)NS(=O)(=O)C1CC1 (stereo partly drawn) [Compound 45, 1-((3S)-3-((2S,4R)-2-(1-(cyclopropyl-sulfonylcarbamoyl)-2-vinylcyclopropyl-carbamoyl)-4-(7-methoxy-2-phenylquinolin-4-yloxy)pyrrolidine-1-carbonyl)-4,4-dimethylpentano-yl)piperidine-3-carboxamide]
EC50 [1]: 1000 to 10000 nM

C=CC1CC1(NC(=O)[C@@H]1C[C@@H](Oc2cc(-c3ccccc3)nc3cc(OC)ccc23)CN1C(=O)C[C@H](C(=O)NC1CCCC1)C(C)(C)C)C(=O)NS(=O)(=O)C1CC1 (some centres unmarked) [Compound 46]
EC50 [1]: < 1000 nM

From patent publication US9133115B2 (ACHILLION PHARMACEUTICALS, INC., priority 2008, dated 2015)
